Results: US12172983B2, “EGFR inhibitors” (Blueprint Medicines Corporation, priority 2019, dated 2024)

Assays:
[1] = tested on: phosphorylation of EGFR (Tyr1068) in NCI-H1975 cell line that harbors the EGFR L858R T790M mutations; test: NCI-H1975 pEGFR AlphaLISA assay; type: cell-based; details: Homo sapiens, NCI-H1975, inhibition of phosphorylation of mutant EGFR in NCI-H1975 cells; 4-5 hours incubation; read-out: Ext pEGFR H1975
Outline: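 NCI-H1975 cells (EGFR L858R/T790M) seeded overnight, then treated with compound for 4-5 h at 37 °C/5% CO2. After lysis, p-EGFR (Tyr1068) quantified by AlphaLISA SureFire Ultra with acceptor then donor beads; IC50 fitted from percent inhibition versus log concentration.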

EGFR (L858R T790M C797S) = molecular target: T1, EGFR (L858R T790M C797S) (Homo sapiens, UniProt P00533, C797S/L858R/T790M); test: Biochemical EGFR inhibition assay (Caliper mobility shift), EGFR LRTMCS mutant; details: inhibitory activity against EGFR LRTMCS mutant; apparent IC50; read-out: Ext Enz LRTMCS
T1 construct: purchased SignalChem E10-122VG
Outline: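 Kinase reactions at 25 °C run to 10–20% peptide phosphorylation, stopped with 35 mM EDTA. Phosphorylated product and substrate separated electrophoretically by mobility shift. Apparent IC50 from percent activity versus log compound concentration.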

T1 sequence (P00533 25-1210 T790M/C797S/L858R): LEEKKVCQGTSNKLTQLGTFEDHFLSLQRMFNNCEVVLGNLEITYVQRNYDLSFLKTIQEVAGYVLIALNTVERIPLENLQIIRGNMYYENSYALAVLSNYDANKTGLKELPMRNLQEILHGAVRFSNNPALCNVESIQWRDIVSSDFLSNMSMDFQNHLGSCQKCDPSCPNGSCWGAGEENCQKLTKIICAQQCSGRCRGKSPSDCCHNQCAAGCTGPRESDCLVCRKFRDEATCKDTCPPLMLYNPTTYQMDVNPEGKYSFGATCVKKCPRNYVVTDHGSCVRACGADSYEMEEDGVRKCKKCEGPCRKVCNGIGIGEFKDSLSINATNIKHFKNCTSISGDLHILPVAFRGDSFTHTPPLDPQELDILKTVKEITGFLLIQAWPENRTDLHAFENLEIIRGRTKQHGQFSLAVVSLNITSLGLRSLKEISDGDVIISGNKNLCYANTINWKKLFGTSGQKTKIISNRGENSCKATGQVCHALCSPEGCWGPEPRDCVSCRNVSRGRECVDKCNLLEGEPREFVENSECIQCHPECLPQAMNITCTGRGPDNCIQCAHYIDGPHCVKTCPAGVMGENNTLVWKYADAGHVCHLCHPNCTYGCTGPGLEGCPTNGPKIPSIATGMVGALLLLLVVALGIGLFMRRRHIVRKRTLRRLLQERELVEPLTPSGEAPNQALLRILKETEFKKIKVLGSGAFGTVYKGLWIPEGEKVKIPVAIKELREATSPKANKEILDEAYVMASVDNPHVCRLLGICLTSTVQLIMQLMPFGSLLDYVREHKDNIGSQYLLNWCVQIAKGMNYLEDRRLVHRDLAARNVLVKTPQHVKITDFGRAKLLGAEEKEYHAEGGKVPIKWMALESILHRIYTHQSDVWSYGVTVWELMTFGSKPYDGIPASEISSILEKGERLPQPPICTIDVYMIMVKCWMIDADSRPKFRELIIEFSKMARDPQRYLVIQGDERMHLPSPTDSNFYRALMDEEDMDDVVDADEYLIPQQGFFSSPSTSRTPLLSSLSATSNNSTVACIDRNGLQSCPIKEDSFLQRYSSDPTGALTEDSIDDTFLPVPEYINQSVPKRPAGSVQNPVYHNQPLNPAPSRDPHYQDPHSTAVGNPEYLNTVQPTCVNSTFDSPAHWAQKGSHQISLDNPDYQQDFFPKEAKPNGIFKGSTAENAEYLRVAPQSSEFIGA

| IC50 [1] | IC50 (EGFR (L858R T790M C797S)) | Compound |
| --- | --- | --- |
| ≤ 10 nM | ≤ 15 nM | CO[C@@H]1CN(c2nccc(Nc3cc4c(C(C)C)ccc(N5C[C@H](CS(C)(=O)=O)[C@H]5C)c4cn3)n2)C[C@H](F)[C@@H]1O (single isomer, unassigned) [Compound 204, (3S,4R,5R)-3-fluoro-1-[4-({8-[(2R,3S)-3-(methanesulfonylmethyl)-2-methylazetidin-1-yl]-5-(propan-2-yl)isoquinolin-3-yl}amino)pyrimidin-2-yl]-5-methoxypiperidin-4-ol or (3R,4S,5S)-3-fluoro-1-[4-({8-[(2R,3S)-3-(methanesulfonylmethyl)-2-methylazetidin-1-yl]-5-(propan-2-yl)isoquinolin-3-yl}amino)pyrimidin-2-yl]-5-methoxypiperidin-4-ol] |
| 10.1 to 20 nM | ≤ 15 nM | CO[C@H]1CCN(c2nccc(Nc3cc4c([C@@H](C)CO)cnc(N5C[C@H](CS(C)(=O)=O)[C@H]5C)c4cn3)n2)C[C@H]1F (single isomer, unassigned) [Compound 208, (2R)-2-[6-({2-[(3R,4S)-3-fluoro-4-methoxypiperidin-1-yl]pyrimidin-4-yl}amino)-1-[(2R,3S)-3-(methanesulfonylmethyl)-2-methylazetidin-1-yl]-2,7-naphthyridin-4-yl]propan-1-ol or (2S)-2-[6-({2-[(3R,4S)-3-fluoro-4-methoxypiperidin-1-yl]pyrimidin-4-yl}amino)-1-[(2R,3S)-3-(methanesulfonylmethyl)-2-methylazetidin-1-yl]-2,7-naphthyridin-4-yl]propan-1-ol] |
| 30.1 to 50 nM | ≤ 15 nM | CC(C)c1nnc(N2CC(CS(C)(=O)=O)C2)c2cnc(Nc3ccnc(N4CC[C@]5(CCO5)C(F)(F)C4)n3)cc12 (single isomer, unassigned) [Compound 209, (S)-N-(2-(5,5-difluoro-1-oxa-7-azaspiro[3.5]nonan-7-yl)pyrimidin-4-yl)-1-isopropyl-4-(3-((methylsulfonyl)methyl)azetidin-1-yl)pyrido[3,4-d]pyridazin-7-amine or (R)-N-(2-(5,5-difluoro-1-oxa-7-azaspiro[3.5]nonan-7-yl)pyrimidin-4-yl)-1-isopropyl-4-(3-((methylsulfonyl)methyl)azetidin-1-yl)pyrido[3,4-d]pyridazin-7-amine] |
| 10.1 to 20 nM | 20.1 to 30 nM | CC(C)c1ccc(N2C[C@H](CS(C)(=O)=O)[C@H]2C)c2cnc(Nc3ccnc(N4CC[C@](C)(O)C(F)(F)C4)n3)cc12 (single isomer, unassigned) [Compound 210, (4S)-3,3-difluoro-1-[4-({8-[(2R,3S)-3-(methanesulfonylmethyl)-2-methylazetidin-1-yl]-5-(propan-2-yl)isoquinolin-3-yl}amino)pyrimidin-2-yl]-4-methylpiperidin-4-ol or (4R)-3,3-difluoro-1-[4-({8-[(2R,3S)-3-(methanesulfonylmethyl)-2-methylazetidin-1-yl]-5-(propan-2-yl)isoquinolin-3-yl}amino)pyrimidin-2-yl]-4-methylpiperidin-4-ol] |
| ≤ 10 nM | 20.1 to 30 nM | CC(C)c1ccc(N2C[C@H](CS(C)(=O)=O)[C@H]2C)c2cnc(Nc3ccnc(N4CC[C@@](C)(O)C(F)(F)C4)n3)cc12 (single isomer, unassigned) [Compound 211, (R)-3,3-difluoro-1-(4-(5-isopropyl-8-((2R,3S)-2-methyl-3-(methylsulfonylmethyl)azetidin-1-yl)isoquinolin-3-ylamino)pyrimidin-2-yl)-4-methylpiperidin-4-ol or (S)-3,3-difluoro-1-(4-(5-isopropyl-8-((2R,3S)-2-methyl-3-(methylsulfonylmethyl)azetidin-1-yl)isoquinolin-3-ylamino)pyrimidin-2-yl)-4-methylpiperidin-4-ol] |
| ≤ 10 nM | ≤ 15 nM | CC(C)c1ccc(N2C[C@H](CS(C)(=O)=O)[C@H]2C)c2cnc(Nc3ccnc(N4C[C@@H](F)[C@@H](O)[C@](C)(F)C4)n3)cc12 (single isomer, unassigned) [Compound 212, (3R,4R,5R)-3,5-difluoro-1-[4-({8-[(2R,3S)-3-(methanesulfonylmethyl)-2-methylazetidin-1-yl]-5-(propan-2-yl)isoquinolin-3-yl}amino)pyrimidin-2-yl]-3-methylpiperidin-4-ol or (3S,4S,5S)-3,5-difluoro-1-[4-({8-[(2R,3S)-3-(methanesulfonylmethyl)-2-methylazetidin-1-yl]-5-(propan-2-yl)isoquinolin-3-yl}amino)pyrimidin-2-yl]-3-methylpiperidin-4-ol] |
| ≤ 10 nM | ≤ 15 nM | CC(C)c1ccc(N2CC(CS(C)(=O)=O)C2)c2cnc(Nc3ccnc(N4CC(C)(C)[C@H](O)C(F)(F)C4)n3)cc12 (single isomer, unassigned) [Compound 213, (4S)-3,3-difluoro-1-[4-({8-[3-(methanesulfonylmethyl)azetidin-1-yl]-5-(propan-2-yl)isoquinolin-3-yl}amino)pyrimidin-2-yl]-5,5-dimethylpiperidin-4-ol or (4R)-3,3-difluoro-1-[4-({8-[3-(methanesulfonylmethyl)azetidin-1-yl]-5-(propan-2-yl)isoquinolin-3-yl}amino)pyrimidin-2-yl]-5,5-dimethylpiperidin-4-ol] |
| ≤ 10 nM | ≤ 15 nM | CC(C)c1ncc(N2C[C@H](CS(C)(=O)=O)[C@H]2C)c2cnc(Nc3ccnc(N4CC[C@@](C)(O)C(F)(F)C4)n3)cc12 (single isomer, unassigned) [Compound 214, (4R)-3,3-difluoro-1-[4-({8-[(2R,3S)-3-(methanesulfonylmethyl)-2-methylazetidin-1-yl]-5-(propan-2-yl)-2,6-naphthyridin-3-yl}amino)pyrimidin-2-yl]-4-methylpiperidin-4-ol or (4S)-3,3-difluoro-1-[4-({8-[(2R,3S)-3-(methanesulfonylmethyl)-2-methylazetidin-1-yl]-5-(propan-2-yl)-2,6-naphthyridin-3-yl}amino)pyrimidin-2-yl]-4-methylpiperidin-4-ol] |
| ≤ 10 nM | ≤ 15 nM | CC(C)c1cnc(N2C[C@H](CS(C)(=O)=O)[C@H]2C)c2cnc(Nc3ccnc(N4CC[C@@](C)(O)C(F)(F)C4)n3)cc12 (single isomer, unassigned) [Compound 215, (4R)-3,3-difluoro-1-[4-({8-[(2R,3S)-3-(methanesulfonylmethyl)-2-methylazetidin-1-yl]-5-(propan-2-yl)-2,7-naphthyridin-3-yl}amino)pyrimidin-2-yl]-4-methylpiperidin-4-ol or (4S)-3,3-difluoro-1-[4-({8-[(2R,3S)-3-(methanesulfonylmethyl)-2-methylazetidin-1-yl]-5-(propan-2-yl)-2,7-naphthyridin-3-yl}amino)pyrimidin-2-yl]-4-methylpiperidin-4-ol] |
| 10.1 to 20 nM | ≤ 15 nM | COCCO[C@H]1CCN(c2nccc(Nc3cc4c(F)ccc(N5C[C@H](CS(C)(=O)=O)[C@H]5C)c4cn3)n2)C[C@H]1F (single isomer, unassigned) [Compound 216] |
| 20.1 to 30 nM | ≤ 15 nM | COCCO[C@@H]1CCN(c2nccc(Nc3cc4c(F)ccc(N5C[C@H](CS(C)(=O)=O)[C@H]5C)c4cn3)n2)C[C@@H]1F (single isomer, unassigned) [Compound 217] |
| ≤ 10 nM | ≤ 15 nM | CO[C@@H]1[C@H](O)CN(c2nccc(Nc3cc4c(C(C)C)ccc(N5CC(CS(C)(=O)=O)C5)c4cn3)n2)CC1(F)F (single isomer, unassigned) [Compound 218, rac-5,5-difluoro-1-[4-[[5-isopropyl-8-[3-(methylsulfonylmethyl)azetidin-1-yl]-3-isoquinolyl]amino]pyrimidin-2-yl]-4-methoxy-piperidin-3-ol] |
| ≤ 10 nM | ≤ 15 nM | CC(C)c1ccc(N2CC(CS(=O)(=O)C(F)F)C2)c2cnc(Nc3ccnc(N4CC[C@@H](O)[C@@](C)(F)C4)n3)cc12 (single isomer, unassigned) [Compound 219] |
| ≤ 10 nM | ≤ 15 nM | CC(C)c1cnc(N2CC(CS(=O)(=O)C(F)F)C2)c2cnc(Nc3ccnc(N4CC[C@@H](O)[C@@](C)(F)C4)n3)cc12 (single isomer, unassigned) [Compound 220] |
| ≤ 10 nM | ≤ 15 nM | C[C@@H]1[C@@H](CS(C)(=O)=O)CN1c1ccc(C(F)(F)F)c2cc(Nc3ccnc(N4CC[C@@H](O)[C@@](C)(F)C4)n3)ncc12 (single isomer, unassigned) [Compound 222] |
| 30.1 to 50 nM | 20.1 to 30 nM | CC(C)c1ccc(N2CC(CS(=O)(=O)C3CNC3)C2)c2cnc(Nc3ccnc(N4CC[C@@H](O)[C@@](C)(F)C4)n3)cc12 (single isomer, unassigned) [Compound 223] |
| ≤ 10 nM | 15.1 to 20 nM | CCS(=O)(=O)C[C@H]1CN(c2ncc(C(C)C)c3cc(Nc4ccnc(N5CC[C@@](C)(O)C(F)(F)C5)n4)ncc23)[C@@H]1C (single isomer, unassigned) [Compound 230, (4R)-1-[4-({8-[(2R,3S)-3-[(ethanesulfonyl)methyl]-2-methylazetidin-1-yl]-5-(propan-2-yl)-2,7-naphthyridin-3-yl}amino)pyrimidin-2-yl]-3,3-difluoro-4-methylpiperidin-4-ol or (4S)-1-[4-({8-[(2R,3S)-3-[(ethanesulfonyl)methyl]-2-methylazetidin-1-yl]-5-(propan-2-yl)-2,7-naphthyridin-3-yl}amino)pyrimidin-2-yl]-3,3-difluoro-4-methylpiperidin-4-ol] |
